Assays:
corn = test: Test C pre-/postemergence herbicide test; type: in vivo, Zea mays; details: preemergence
Source text: (§1) Seeds of plant species selected from bermudagrass (Cynodon dactylon (L.) Pers.), Surinam grass (Urochloa decumbens (Staph) R. D. Webster, previously named Brachiaria decumbens Stapf), cocklebur (Xanthium strumarium L.), corn (Zea mays L.), large crabgrass (Digitaria sanguinalis (L.) Scop.), woolly cupgrass (Eriochloa villosa (Thunb.) Kunth), giant foxtail (Setaria faberi Herrm.), goosegrass (Eleusine indica (L.) Gaertn.), johnsongrass (Sorghum halepense (L.) Pers.), kochia (Kochia scoparia (L.) Schrad.), lambsquarters (Chenopodium album L.), morningglory (Ipomoea coccinea L.), eastern black nightshade (Solanum ptycanthum Dunal), yellow nutsedge (Cyperus esculentus L.), pigweed (Amaranthus retroflexus L.), common ragweed (Ambrosia elatior L.), soybean (Glycine max (L.) Merr.), common (oilseed) sunflower (Helianthus annuus L.) and velvetleaf (Abutilon theophrasti Medik.) were planted and treated preemergence with test chemicals formulated in a non-phytotoxic solvent mixture which included a surfactant.
(§2) At the same time, plants selected from these crop and weed species and also winter barley (Hordeum vulgare L.), blackgrass (Alopecurus myosuroides Huds.), canarygrass (Phalaris minor Retz.), chickweed (Stellaria media (L.) Vill.), downy bromegrass (Bromus tectorum L.), green foxtail (Setaria viridis (L.) Beauv.), Italian ryegrass (Lolium multiflorum Lam.), wheat (Triticum aestivum L.), wild oat (Avenafatua L.) and windgrass (Apera spica-venti (L.) Beauv.) were treated with postemergence applications of some of the test chemicals formulated in the same manner. Plants ranged in height from 2 to 18 cm (1- to 4-leaf stage) for postemergence treatments. Plant species in the flooded paddy test consisted of rice (Oryza sativa), smallflower umbrella sedge (Cyperus difformis L.), ducksalad (Heteranthera limosa (Sw.) Willd.) and barnyardgrass (Echinochloa crus-galli (L.) Beauv.) grown to the 2-leaf stage for testing. Treated plants and controls were maintained in a greenhouse for 12 to 14 days, after which time all species were compared to controls and visually evaluated. Plant response ratings, summarized in Table C, are based on a scale of 0 to 100 where 0 is no effect and 100 is complete control. A dash (-) response means no test result.

pigweed = test: Test C pre-/postemergence herbicide test; type: in vivo, Amaranthus retroflexus; details: preemergence
Source text: as §1, §2

ducksalad = test: Test C flooded paddy test; type: in vivo, Heteranthera limosa; details: for Plant response rating, Ducksalad: 500 g ai/ha, visual rating after 12 to 14 days
rice = test: Test C flooded paddy test; type: in vivo, Oryza sativa; details: for Plant response rating, Rice: 500 g ai/ha, visual rating after 12 to 14 days
Summary of the method: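 Plants were grown to the 1- to 4-leaf stage (2–18 cm) and then treated postemergence, or grown to the 2-leaf stage for the flooded paddy test. They were held in a greenhouse for 12 to 14 days and then scored by eye against controls, where 0 is no effect and 100 is complete control.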

Surinam grass = test: Test C pre-/postemergence herbicide test; type: in vivo, Urochloa decumbens; details: preemergence
Source text: as §1, §2

velvetleaf [1] = test: Test C pre-/postemergence herbicide test; type: in vivo, Abutilon theophrasti; details: preemergence
Source text: as §1, §2

morningglory = test: Test A pre-/postemergence herbicide test; type: in vivo, Ipomoea spp.
Summary of the method: (§3)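 Seeds sown in sandy loam received a preemergence directed soil spray of compound in non-phytotoxic solvent with surfactant; postemergence plants (2–10 cm, one- to two-leaf stage) were sprayed to runoff at the same time. After ~10 days in greenhouse, injury was rated visually versus untreated controls (0 = no effect, 100 = complete control).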

kochia = test: Test C pre-/postemergence herbicide test; type: in vivo, Kochia scoparia; details: preemergence
Source text: as §1, §2

giant foxtail = test: Test A pre-/postemergence herbicide test; type: in vivo, Setaria faberi
Summary of the method: as §3

velvetleaf [2] = test: Test A pre-/postemergence herbicide test; type: in vivo, Abutilon theophrasti
Summary of the method: as §3

lambsquarters = test: Test C pre-/postemergence herbicide test; type: in vivo, Chenopodium album; details: preemergence; for Plant response rating (0 = no effect, 100 = complete control), Lambsquarters: 125 g ai/ha
Source text: as §1, §2

[3] = 125 g ai/ha, scale 0 (no effect) to 100 (complete control), visual, 12 to 14 days
[4] = 500 g ai/ha, scale 0 to 100 (0 no effect, 100 complete control), visual, 12 to 14 days
[5] = 62 g ai/ha, scale 0 to 100 (0 no effect, 100 complete control)
[6] = 125 g ai/ha, scale 0 to 100 (0 no effect, 100 complete control)
[7] = 250 g ai/ha, scale of 0 to 100, 0 is no effect, 100 is complete control
[8] = scale 0 to 100 (0 no effect, 100 complete control)
[9] = Postemergence, 500 g ai/ha, 0 to 100 scale, 0 no effect, 100 complete control
[10] = Postemergence, 2000 g ai/ha, 0 to 100 scale, 0 no effect, 100 complete control
[11] = Preemergence, 500 g ai/ha, visual rating, 0 to 100 scale (0 no effect, 100 complete control)
[12] = Preemergence, 2000 g ai/ha, 0 to 100 scale, 0 no effect, 100 complete control
[13] = 125 g ai/ha, scale of 0 to 100, 0 is no effect, 100 is complete control

`CCn1nc(C(C)(C)C)cc1C(=O)Nc1cc(C(=O)N(C)OC)ccc1F` [Compound 244] was tested, and the “Plant response rating, Corn” value (corn; 62 g ai/ha, scale 0 to 100) was 0, the “Plant response rating, Corn” value (corn; [3]) was 10 and the “Plant response rating, Corn” value (corn; 250 g ai/ha, scale 0-100) was 10. The “Plant response rating, Corn” value (corn; [4]) was 45, the “Plant response rating, Pigweed” value (pigweed; 62 g ai/ha, scale 0 to 100) was 100 and the “Plant response rating, Pigweed” value (pigweed; [3]) was 100. The “Plant response rating, Pigweed” value (pigweed; 250 g ai/ha, scale 0-100) was 100, the “Plant response rating, Pigweed” value (pigweed; [4]) was 100 and the “Ducksalad plant response rating” value (ducksalad; [5]) was 25. For the same molecule, the “Ducksalad plant response rating” value (ducksalad; [6]) was 85, the “Ducksalad plant response rating” value (ducksalad; [7]) was 85 and the “Plant response rating, Ducksalad” value (ducksalad; [8]) was 95. The “Rice plant response rating” value (rice; [5]) was 40, the “Rice plant response rating” value (rice; [6]) was 70 and the “Rice plant response rating” value (rice; [7]) was 75. The “Plant response rating, Rice” value (rice; [8]) was 75, the “Plant response rating, Surinam Grass” value (Surinam grass; 62 g ai/ha, scale 0 to 100) was 100 and the “Plant response rating, Surinam Grass” value (Surinam grass; 250 g ai/ha, scale 0-100) was 100. The “Plant response rating, Surinam Grass” value (Surinam grass; [4]) was 100, the “Plant response rating, Velvetleaf” value (velvetleaf [1]; 62 g ai/ha, scale 0 to 100) was 15 and the “Plant response rating, Velvetleaf” value (velvetleaf [1]; 250 g ai/ha, scale 0-100) was 100. For the same molecule, the “Plant response rating, Velvetleaf” value (velvetleaf [1]; [4]) was 100.
For `CCOC(=O)c1cc(NC(=O)c2cc(C(C)(C)C)nn2CC)ccc1OCC` [Compound 95], the “Morningglory plant response rating” value (morningglory; [9]) was 10, the “Plant response rating, Morningglory” value (morningglory; [10]) was 15 and the “Morningglory plant response rating” value (morningglory; [11]) was 30. For the same molecule, the “Morningglory plant response rating” value (morningglory; [12]) was 55, the “Plant response rating, Kochia” value (kochia; 31 g ai/ha, scale 0 to 100) was 80 and the “Plant response rating (0 = no effect, 100 = complete control), Kochia” value (kochia; 62 g ai/ha) was 100. The “Plant response rating, Kochia” value (kochia; [3]) was 100, the “Foxtail, Giant plant response rating” value (giant foxtail; [9]) was 20 and the “Plant response rating, Foxtail, Giant” value (giant foxtail; [10]) was 50. The “Foxtail, Giant plant response rating” value (giant foxtail; [11]) was 70, the “Foxtail, Giant plant response rating” value (giant foxtail; [12]) was 90 and the “Velvetleaf plant response rating” value (velvetleaf [2]; [9]) was 45. For the same molecule, the “Plant response rating, Velvetleaf” value (velvetleaf [2]; [10]) was 50, the “Velvetleaf plant response rating” value (velvetleaf [2]; [11]) was 50 and the “Velvetleaf plant response rating” value (velvetleaf [2]; Preemergence, 2000 g ai/ha, visual rating, 0 to 100 scale (0 no effect, 100 complete control)) was 80. For the same molecule, the “Plant response rating, Corn” value (corn; 31 g ai/ha, scale 0 to 100) was 0, the “Plant response rating (0 = no effect, 100 = complete control), Corn” value (corn; 62 g ai/ha) was 0 and the “Plant response rating, Corn” value (corn; [3]) was 10. The “Plant response rating, Corn” value (corn; 250 g ai/ha, scale 0 to 100 (0 no effect, 100 complete control), visual, 12 to 14 days) was 20, the “Plant response rating, Pigweed” value (pigweed; 31 g ai/ha, scale 0 to 100) was 100 and the “Plant response rating (0 = no effect, 100 = complete control), Pigweed” value (pigweed; 62 g ai/ha) was 100. The “Plant response rating, Pigweed” value (pigweed; [3]) was 100, the “Ducksalad plant response rating” value (ducksalad; [5]) was 10 and the “Ducksalad plant response rating” value (ducksalad; [13]) was 25. For the same molecule, the “Ducksalad plant response rating” value (ducksalad; [7]) was 75, the “Plant response rating, Ducksalad” value (ducksalad; [8]) was 90 and the “Rice plant response rating” value (rice; [5]) was 10. The “Rice plant response rating” value (rice; [13]) was 10, the “Rice plant response rating” value (rice; [7]) was 55 and the “Plant response rating, Rice” value (rice; [8]) was 65. For the same molecule, the “Plant response rating, Surinam Grass” value (Surinam grass; 31 g ai/ha, scale 0 to 100) was 0, the “Plant response rating (0 = no effect, 100 = complete control), Surinam Grass” value (Surinam grass; 62 g ai/ha) was 0 and the “Plant response rating, Surinam Grass” value (Surinam grass; [3]) was 10. For the same molecule, the “Plant response rating, Velvetleaf” value (velvetleaf [1]; 31 g ai/ha, scale 0 to 100) was 0 and the “Plant response rating, Velvetleaf” value (velvetleaf [1]; [3]) was 60.
For `CCNC(=S)c1cccc(NC(=O)c2nn(C(C)(C)C)nc2C)c1` [Compound 420], the “Plant response rating, Kochia” value (kochia; 62 g ai/ha, scale 0 to 100) was 70, the “Plant response rating (0 = no effect, 100 = complete control), Kochia” value (kochia; 125 g ai/ha) was 85 and the “Plant response rating, Kochia” value (kochia; 250 g ai/ha, scale 0-100) was 100. For the same molecule, the “Plant response rating, Kochia” value (kochia; [4]) was 100, the “Plant response rating, Corn” value (corn; 62 g ai/ha, scale 0 to 100) was 0 and the “Plant response rating (0 = no effect, 100 = complete control), Corn” value (corn; 125 g ai/ha) was 0. For the same molecule, the “Plant response rating, Corn” value (corn; 250 g ai/ha, scale 0-100) was 10, the “Plant response rating, Corn” value (corn; [4]) was 40 and the “Plant response rating, Pigweed” value (pigweed; 62 g ai/ha, scale 0 to 100) was 100. The “Plant response rating (0 = no effect, 100 = complete control), Pigweed” value (pigweed; 125 g ai/ha) was 100, the “Plant response rating, Pigweed” value (pigweed; [4]) was 100 and the “Plant response rating, Lambsquarters” value (lambsquarters; 62 g ai/ha, scale 0 to 100) was 95. For the same molecule, the “Plant response rating (0 = no effect, 100 = complete control), Lambsquarters” value (lambsquarters) was 100, the “Plant response rating, Lambsquarters” value (lambsquarters; 250 g ai/ha, scale 0-100) was 100 and the “Plant response rating, Lambsquarters” value (lambsquarters; [4]) was 100. For the same molecule, the “Plant response rating, Surinam Grass” value (Surinam grass; 62 g ai/ha, scale 0 to 100) was 10, the “Plant response rating (0 = no effect, 100 = complete control), Surinam Grass” value (Surinam grass; 125 g ai/ha) was 20 and the “Plant response rating, Surinam Grass” value (Surinam grass; [4]) was 95. For the same molecule, the “Plant response rating, Velvetleaf” value (velvetleaf [1]; 62 g ai/ha, scale 0 to 100) was 80, the “Plant response rating (0 = no effect, 100 = complete control), Velvetleaf” value (velvetleaf [1]; 125 g ai/ha) was 100 and the “Plant response rating, Velvetleaf” value (velvetleaf [1]; [4]) was 100.
For `CCc1nn(C(C)C)nc1C(=O)Nc1cccc(C(=O)N2CCCCC2)c1` [Compound 385], the “Plant response rating, Kochia” value (kochia; 62 g ai/ha, scale 0 to 100) was 0, the “Plant response rating (0 = no effect, 100 = complete control), Kochia” value (kochia; 125 g ai/ha) was 70 and the “Plant response rating, Kochia” value (kochia; 250 g ai/ha, scale 0-100) was 85. For the same molecule, the “Plant response rating, Kochia” value (kochia; [4]) was 100, the “Plant response rating, Corn” value (corn; 62 g ai/ha, scale 0 to 100) was 0 and the “Plant response rating, Pigweed” value (pigweed; 62 g ai/ha, scale 0 to 100) was 80. The “Plant response rating (0 = no effect, 100 = complete control), Pigweed” value (pigweed; 125 g ai/ha) was 100, the “Plant response rating, Pigweed” value (pigweed; 250 g ai/ha, scale 0-100) was 100 and the “Plant response rating, Pigweed” value (pigweed; [4]) was 100. The “Plant response rating, Lambsquarters” value (lambsquarters; 62 g ai/ha, scale 0 to 100) was 75, the “Plant response rating (0 = no effect, 100 = complete control), Lambsquarters” value (lambsquarters) was 100 and the “Plant response rating, Lambsquarters” value (lambsquarters; 250 g ai/ha, scale 0-100) was 100. The “Plant response rating, Lambsquarters” value (lambsquarters; [4]) was 100, the “Ducksalad plant response rating” value (ducksalad; 62 g ai/ha, scale 0 to 100) was 0 and the “Ducksalad plant response rating” value (ducksalad; [7]) was 70. The “Plant response rating, Ducksalad” value (ducksalad; [8]) was 75, the “Rice plant response rating” value (rice; 62 g ai/ha, scale 0 to 100) was 40 and the “Rice plant response rating” value (rice; [6]) was 50. The “Rice plant response rating” value (rice; [7]) was 65, the “Plant response rating, Rice” value (rice; [8]) was 80 and the “Plant response rating, Velvetleaf” value (velvetleaf [1]; 62 g ai/ha, scale 0 to 100) was 50. For the same molecule, the “Plant response rating (0 = no effect, 100 = complete control), Velvetleaf” value (velvetleaf [1]; 125 g ai/ha) was 85, the “Plant response rating, Velvetleaf” value (velvetleaf [1]; 250 g ai/ha, scale 0-100) was 100 and the “Plant response rating, Velvetleaf” value (velvetleaf [1]; [4]) was 100.
